Experimental data taken from US11685710B2, “Cationic sulfonamide amino lipids and amphiphilic zwitterionic amino lipids” (The Board of Regents of the University of Texas System, priority 2016, dated 2023).

Assays:
A549-Luc cells = assay: Cas9 mRNA delivery: mRNA level (RT-qPCR) and Cas9 protein expression (western blot); assay type: cell-based; details: for level of Cas9 mRNA: A549 lung cancer cells
Experimental: The cells were lysed in cold RIPA buffer (Thermo Scientific), the lysate cleared by centrifugation and total protein in the supernatant quantified by the BCA assay (Pierce). 50 μg total protein was loaded on 4-20% precast polyacrylamide gel and transferred to a nitrocellulose membrane (BioRad). The membrane was blocked in 5% nonfat milk for 1 hour at RT, and then incubated with primary antibody at 4° C. overnight (Cas9 antibody, 1:1000, Cell Signaling, 14697S; beta-actin antibody, 1:2000, Cell Signaling, 4970). Secondary antibodies were applied at RT for 1 hour (anti-rabbit IgG, HRP-linked antibody, Cell Signaling, 7074, anti-mouse IgG, HRP-linked antibody, Cell Signaling, 7076), and then the membrane was developed and detected on X-ray film.
Cells were transfected with Cas9 mRNA for the indicated time point in a 6-well plate and 0.5 μg/mL mRNA for the indicated time point. Total RNA was extracted using the TRIzol reagent according to the manufacturer's protocol. The RNA was reverse transcribed using the iScript Reverse Transcription kit (BioRad) and the real-time qPCR was run on a Bio-Rad C1000 Touch Thermal Cycler (CFX384 Real-time System). Each reaction was made with iTaq Universal SYBR Green 2× Supermix (Bio-Rad). The qPCR program is as follows:
Human β-actin was used as a control and mRNA levels were normalized to fold actin and plotted as an average of two independent experiments.

[1] = Nanoparticle size by dynamic light scattering; assay type: physicochemical; details: Luc mRNA NPs, varied PEG-lipid
Experimental: (§1) Nanoparticle property characterization: Physical properties were measured using a Zetasizer Nano ZS (Malvern) with an He—Ne laser (λ=632 nm). Particle sizes were measured by dynamic light scattering (DLS) (5 measurements, 3 runs×10 seconds, automatic attenuator setting) by 173° back scattering. Zeta potential was measured in a folded capillary cell (Malvern) with samples diluted in PBS for ZAL NPs or citrate phosphate buffer pH 7.4 for CSAL NPs.
as §1, with “Physical” for “Nanoparticle property characterization: Physical”

IGROV1 cells = assay: mRNA delivery in vitro assay (luciferase / mCherry mRNA); assay type: cell-based, human
Experimental: ZAL mRNA delivery in vitro assay: ZAL nanoparticles with firefly luciferase mRNA (Tri-Link Biotechnologies) were prepared using the in vitro nanoparticle formulation method outlined above. IGROV1 cells were seed in white opaque 96-well tissue culture plates at a seeding density of 5×10^3 cells per well in 100 μL RPMI 1640 medium supplemented with 5% FBS, and allowed to attach overnight. After overnight incubation, and additional 100 μL medium was added to the wells. The ZAL:mRNA nanoparticles were prepared at a ZAL:mRNA weight ratio of 20:1, 10:1, 7.5:1 and 5:1, and lipid mixture molar compositions of 50:38.5 ZAL:cholesterol, with PEG lipid supplemented at a molar ratio of 5%, 2%, 1% or 0.5% at each weight ratio. The ZAL-mRNA nanoparticles were added to the cells at a dose of 100 ng mRNA per well and incubated for the indicated time (ranging from 6 h to 48 h), after which time cell viability and luciferase expression were evaluated with the ONE-Glo+Tox Assay cell viability and luciferase assay (Promega) and normalized to untreated cells (N=4+/−standard deviation)
ZNPs with mRNA (Tri-Link Biotechnologies) were prepared using the in vitro nanoparticle formulation method outlined above. IGROV1 cells were seeded in white opaque 96-well tissue culture plates at a seeding density of 5×10^3 cells per well in 100 μL RPMI 1640 medium supplemented with 5% FBS, and allowed to attach overnight. After overnight incubation, an additional 100 μL medium was added to the wells. The ZAL:mRNA nanoparticles were prepared at ZAL:mRNA weight ratios of 20:1, 10:1, 7.5:1 and 5:1, and lipid mixture molar compositions of 50:38.5:n ZAL:cholesterol:PEG-lipid, where n=5, 2, 1, and 0.5 at each weight ratio. The ZAL-mRNA nanoparticles were added to the cells at the appropriate mRNA dose and incubated for the indicated time (ranging from 6 h to 48 h), after which time cell viability and luciferase expression were evaluated with the ONE-Glo+Tox Assay (Promega) and normalized to untreated cells (N=4+/−standard deviation).

[2] = system: Lox-Stop-Lox tdTomato (tdTO) cassette; assay: In vivo delivery of Cas9 mRNA and sgLoxP (tdTomato activation); set-up: species or system mice; details: 5 mg/kg
Experimental: ZA3-Ep10 ZNPs encapsulating Cas9 mRNA and sgLoxp were prepared according to the in vivo nanoparticle formulation protocol using the Nanoassemblr microfluidic mixing device. The lipid mix contained 50 ZA3-Ep10:38.5 cholesterol:0.5 PEG-lipid molar ratios, and the particles were formulated at a 7.5:1 ZAL:total RNA weight ratio. The Cas9 mRNA:sgLoxP weight ratio was maintained at 4:1. […] After which they were sacrificed and the major organs imaged using the IVIS Lumina system for fluorescence expression (dsRed filter set) compared to an uninjected Rosa 26-LSL-tdTomato mouse. A liver specific Cre recombinase adeno-associated virus (Cre-AAV8) injected intravenously via tail vein injection (4 days) was used as a positive control.
Tissue were fixed in 4% paraformaldehyde (PFA) at RT for 2 hours, then changed in 30% sucrose (in PBS) at 4° C. overnight. Then the tissues were embedded in Cryo-gel (Leica Biosystems), and frozen in dry ice. The blocks were sectioned using Cryostat machine (Leica Biosystems) at 8 μm thickness. […]
For detection of Tomato positive populations, primary hepatocytes (2×10^6/mL) were isolated and stained with DAPI (Roche, 2 μg/mL) for dead cell exclusion. Cells were analyzed with BD FACSAria Fusion machine (BD Biosciences). Tomato positive cells were counted in DAPI negative (live cell) populations.

Which “time of highest Cas9 protein expression” value (A549-Luc cells; A549 cells, low at 4 h, increased by 12 h) does the source give for `CCCCCCCCC(O)CN(CCC(=O)NCC[N+](C)(C)CCCS(=O)(=O)[O-])CCN(CCN(CC(O)CCCCCCCC)CC(O)CCCCCCCC)CCN(CC(O)CCCCCCCC)CC(O)CCCCCCCC` (stereo not drawn) [ZA3-Ep10] here?
Its value is 36 h.

What about the “level of Cas9 mRNA” value (A549-Luc cells; after 4 h incubation) of the same compound?
Its value is > 4 fold actin.

What about the “level of Cas9 mRNA” value (A549-Luc cells; over the next 45 h) of the same compound?
The value was 0.7 fold actin.

And the “change in ZNP size versus PEG lipid ratio” value [1]?
The value was “modest change”.

And the “delivery efficacy of mRNA versus PEG lipid ratio” value (IGROV1 cells; PEG-lipid 5, 2, 1 or 0.5 in lipid mix)?
The value was “decreased with higher PEG lipid ratios”.

And the “luciferase expression versus mRNA dose” value (IGROV1 cells; luciferase mRNA (~2,000 nt), IGROV1 cells)?
Its value is “dose-dependent”.

And the “mRNA dose required for high expression” value (IGROV1 cells; luciferase mRNA, IGROV1 cells)?
The value was < 600 pM.

And the mCherry expression (IGROV1 cells; mCherry mRNA (~1,000 nt), IGROV1 cells)?
Its mCherry expression is “Bright mCherry expression”.

What about the “fluorescent signal 2 months after treatment” value [2] of the same compound?
Its value is “significant fluorescent signal in the liver and kidneys”.
